Measured values as given in ChEMBL document CHEMBL1201862, “PubChem BioAssay data set” (2004).
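Each compound was tested at five concentrations against cells in 96-well plates for 48 hours. Here, GI50 denotes the concentration required for 50% inhibition of growth.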 Calls of active or inactive are those of the source. Cut-off read from the data, not from the text of the source: active = GI50 up to about 1.1 µM and inactive = higher.

Tests used:
Experiment in all cases: DTP human tumour cell line panel, 48 h
DMS-273 = test system: DMS-273
SNB-78 = test system: SNB-78
LXFL 529 = test system: LXFL 529
KM-20L2 = test system: KM-20L2
HOP-18 = test system: HOP-18
RXF 631 = test system: RXF 631
DLD-1 = test system: DLD-1
M19-MEL = test system: M19-MEL
XF498 = test system: XF498

SMILES	GI50 (DMS-273)	GI50 (SNB-78)	GI50 (LXFL 529)	GI50 (KM-20L2)	GI50 (HOP-18)	GI50 (RXF 631)	GI50 (DLD-1)	GI50 (M19-MEL)	GI50 (XF498)
CC1(C)CC(=O)c2c(oc3cc(O)c(O)cc23)C1	28.6 µM (inactive)	46.9 µM (inactive)	24.7 µM (inactive)	33.7 µM (inactive)	40.1 µM (inactive)	26.3 µM (inactive)	22.9 µM (inactive)	35.3 µM (inactive)	
COc1cc2c(c(OC)c1OC)-c1ccc(SC)c(=O)cc1C(NC(=O)c1ccccc1)CC2 (stereo not drawn)	< 0.01 µM (active)	< 0.01 µM (active)	< 0.01 µM (active)	< 0.01 µM (active)	77.1 µM (inactive)		< 0.01 µM (active)		< 0.0601 µM (active)
CCn1c2c(c3ccccc31)[C@@H](c1ccc(Cl)cc1)CC1C(=O)N(c3ccccc3)C(=O)C21 (stereo partly drawn)	> 100 µM (inactive)	26.4 µM (inactive)	> 100 µM (inactive)	> 100 µM (inactive)	> 100 µM (inactive)		> 100 µM (inactive)	> 100 µM (inactive)	64.6 µM (inactive)
CC1=C(c2cc(C(=O)Nc3cc(C)ccc3C)nc(N)n2)Sc2ccccc2N1	> 100 µM (inactive)	> 100 µM (inactive)	> 100 µM (inactive)	> 100 µM (inactive)	> 100 µM (inactive)	> 100 µM (inactive)	> 100 µM (inactive)	> 100 µM (inactive)	
C=CCc1cc(OC)c2c(c1)C(OC)CC(c1ccc(OC)c(OC)c1)O2 (stereo not drawn)	> 100 µM (inactive)	> 100 µM (inactive)	> 100 µM (inactive)	> 100 µM (inactive)		> 100 µM (inactive)	> 100 µM (inactive)	> 100 µM (inactive)	> 100 µM (inactive)
Cc1ccc([N+](=O)[O-])cc1NC(=O)/C(=N/NC(=S)NN)C1SC(=S)NC1=O (stereo not drawn)	> 100 µM (inactive)	> 100 µM (inactive)	> 100 µM (inactive)	> 100 µM (inactive)	> 100 µM (inactive)		> 100 µM (inactive)		> 100 µM (inactive)
COc1cc(/C=C2\[C@H]3c4c(c(OC)c(C)c(OC)c4OC)C[C@@H](C(=O)N2Cc2ccccc2)N3C(=O)OCC(C)C)c(OC)c(C)c1OC	47.1 µM (inactive)		> 100 µM (inactive)	> 69.8 µM (inactive)	> 100 µM (inactive)		> 100 µM (inactive)	> 100 µM (inactive)	40.6 µM (inactive)
C[n+]1c(Cl)cn2c3nc4ccccc4nc3c([O-])c(C#N)c21	> 100 µM (inactive)	> 100 µM (inactive)	> 100 µM (inactive)		> 100 µM (inactive)		< 0.01 µM (active)	< 0.01 µM (active)	> 100 µM (inactive)
O=C(CC1(O)C(=O)Nc2c(Cl)cc(Cl)cc21)c1ccccc1 (stereo not drawn)	45.7 µM (inactive)	81.3 µM (inactive)	50.1 µM (inactive)	> 100 µM (inactive)		> 100 µM (inactive)		31.6 µM (inactive)	47.1 µM (inactive)
CC(C)=C1CCC(CN2CCOCC2)C1=O (stereo not drawn)		9.38 µM (inactive)	2.38 µM (inactive)	16.4 µM (inactive)	9.35 µM (inactive)	9.23 µM (inactive)	4.38 µM (inactive)	22.1 µM (inactive)	12.7 µM (inactive)
C=CCOC(=O)C1CCC(=O)N1C(=O)C(Cl)Cl (stereo not drawn)	> 100 µM (inactive)	> 100 µM (inactive)	> 100 µM (inactive)	> 100 µM (inactive)	> 100 µM (inactive)		> 100 µM (inactive)	> 100 µM (inactive)	17.7 µM (inactive)
COc1c(C)cc2c(C(C)C)c(O)c(O)c(C=O)c2c1O	23 µM (inactive)	27.9 µM (inactive)	24.8 µM (inactive)	19.7 µM (inactive)	14.9 µM (inactive)		32.1 µM (inactive)	26.5 µM (inactive)	39 µM (inactive)
O=c1/c(=C/c2cccc3ccccc23)sc2nc3ccccc3n12	> 100 µM (inactive)	> 100 µM (inactive)	> 100 µM (inactive)	> 100 µM (inactive)	> 100 µM (inactive)	> 100 µM (inactive)	> 100 µM (inactive)	> 100 µM (inactive)	
Cc1ccn2c(c1)nc1nc3ccccc3nc12	> 100 µM (inactive)	> 100 µM (inactive)	> 100 µM (inactive)	> 100 µM (inactive)			> 100 µM (inactive)	> 100 µM (inactive)	> 100 µM (inactive)
NN/C(Cc1ccccc1)=N\NO	> 100 µM (inactive)		55.1 µM (inactive)	32.5 µM (inactive)	> 100 µM (inactive)	32.2 µM (inactive)	> 100 µM (inactive)	> 100 µM (inactive)	
O=c1/c(=C/c2ccccc2F)sc2nc3ccccc3n12	> 100 µM (inactive)	> 100 µM (inactive)	88.3 µM (inactive)	> 100 µM (inactive)		> 100 µM (inactive)	> 100 µM (inactive)	> 100 µM (inactive)	> 100 µM (inactive)
CCOc1ccccc1/N=C(/NC(=O)CC)SC	> 10 µM (inactive)	> 10 µM (inactive)	> 10 µM (inactive)	> 10 µM (inactive)	> 10 µM (inactive)	> 10 µM (inactive)	88.3 µM (inactive)	> 10 µM (inactive)	
Cc1ccc(Nc2ccc(Nc3ccc(C)cc3S(=O)(=O)O)c3c2C(=O)c2ccccc2C3=O)c(S(=O)(=O)O)c1	> 100 µM (inactive)	> 100 µM (inactive)	> 100 µM (inactive)	> 100 µM (inactive)	> 100 µM (inactive)	> 100 µM (inactive)	> 100 µM (inactive)		
CC[C@@H]1C[C@H]2CC3c4[nH]c5ccc(O)cc5c4CCN(C2)C31	> 100 µM (inactive)	> 100 µM (inactive)	> 100 µM (inactive)	> 100 µM (inactive)	> 100 µM (inactive)	> 100 µM (inactive)		> 100 µM (inactive)	> 100 µM (inactive)
C=C1C(=O)O[C@@H]2C[C@@H](C)[C@@H]3C=CC(=O)[C@@]3(C)[C@@H](O)[C@H]12 [HELENALIN]	1.53 µM (inactive)		0.493 µM (active)	1.73 µM (inactive)	2.02 µM (inactive)		0.557 µM (active)	2.82 µM (inactive)	
CC1=Cc2cccc(C)c2C(=O)C1=O [O-HIBISCANONE]	19.9 µM (inactive)	26 µM (inactive)	2.11 µM (inactive)	18.9 µM (inactive)	1.42 µM (inactive)		2.13 µM (inactive)	7.67 µM (inactive)	5.2 µM (inactive)
